Reference: patent US20140357487A1, “PLANTS HAVING INCREASED TOLERANCE TO HERBICIDES” (BASF SE, priority 2011, published 2014)

Assays:
Lolium HPPD = assay: HPPD activity assay, Lolium HPPD; format: biochemical; conditions: normalized on Arabidopsis wild-type HPPD
Protocol: (§1) HPPD produces homogentisic acid and CO2 from 4-hydroxyphenylpyruvate (4-HPP) and O2. The activity assay for HPPD is based on the analysis of homogentisic acid by reversed phase HPLC.
(§2) The assay mixture can contain 150 mM potassium phosphate buffer pH 7.0, 50 mM L-ascorbic acid, 1 μM FeSO4 and 7 μg of purified enzyme in a total volume of 1 ml.
(§3) Inhibitors are dissolved in DMSO (dimethylsulfoxide) to a concentration of 20 mM or 0.5 mM, respectively. From this stock solution serial five-fold dilutions are prepared in DMSO, which are used in the assay. The respective inhibitor solution accounts for 1% of the assay volume. Thus, final inhibitor concentrations range from 200 μM to 2.5 nM or from 5 μM to 63 pM, respectively. After a preincubation of 30 min the reaction is started by adding 4-HPP to a final concentration of 0.1 mM. The reaction is allowed to proceed for 120 min at room temperature. The reaction is stopped by addition of 100 μl of 4.5 M phosphoric acid.
(§4) Activities are normalized by setting the uninhibited enzyme activity to 100%. IC50 values are calculated using non-linear regression.
(§5) The assay mixture can contain 150 mM potassium phosphate buffer pH 7.0, 50 mM L-ascorbic acid, 100 μM Catalase (Sigma-Aldrich), 1 μM FeSO4 and 0.2 units of purified HPPD enzyme in a total volume of 505 μl. 1 unit is defined as the amount of enzyme that is required to produce 1 nmol of HGA per minute at 20° C.
(§6) Inhibitors are dissolved in DMSO (dimethylsulfoxide) to a concentration of 0.5 mM. From this stock solution serial five-fold dilutions are prepared in DMSO, which are used in the assay. The respective inhibitor solution accounts for 1% of the assay volume. Thus, final inhibitor concentrations range from 5 μM to 320 pM, respectively. Activities are normalized by setting the uninhibited enzyme activity to 100%. IC50 values are calculated using non-linear regression.
(§7) Using methods which are described in the above examples or well known in the art, purified, recombinant wildtype HPPD enzymes are characterized with respect to their kinetic properties and sensitivity towards HPPD inhibiting herbicides. Apparent michaelis constants (Km) and maximal reaction velocities (Vmax) are calculated by non-linear regression with the software GraphPad Prism 5 (GraphPad Software, La Jolla, USA) using a substrate inhibition model. […] Weighted means (by standard error) of Km and […] values are calculated from at least three independent experiments. […]
(§8) Field performance of the HPPD enzyme, which is used as a herbicide tolerance trait, may depend not only on its lack of sensitivity towards HPPD inhibiting herbicides but also on its activity. To assess the potential performance of a herbicide tolerance trait a tolerance index (TI) is calculated using the following formula: […]

Alopecurus HPPD = assay: HPPD activity assay, Alopecurus HPPD; format: biochemical; conditions: normalized on Arabidopsis wild-type HPPD
Protocol: as §1, §2, §3, §4
(§9) The assay mixture can contain 150 mM potassium phosphate buffer pH 7.0, 50 mM L-ascorbic acid, 100 μM Catalase (Sigma-Aldrich), 1 μM FeSO4 and 0.2 units of purified HPPD enzyme in a total volume of 505 μl. […]
(§10) Inhibitors are dissolved in DMSO (dimethylsulfoxide) to a concentration of 0.5 mM. […] IC50 values are calculated using non-linear regression.
as §7

Avena HPPD = assay: HPPD activity assay, Avena HPPD; format: biochemical, Avena sativa; conditions: normalized on Arabidopsis wild-type HPPD
Protocol: as §1, §2, §3, §4, §5, §6, §7, §8

Chlamydomonas HPPD1 = assay: HPPD activity assay, Chlamydomonas HPPD1; format: biochemical, Chlamydomonas reinhardtii; conditions: normalized on Arabidopsis wild-type HPPD
Protocol: as §1, §2, §3, §4, §9, §10, §7

[1] = molecular target: T1, Arabidopsis HPPD (SEQ ID: 53) (Arabidopsis thaliana, UniProt P93836); assay: HPPD activity assay, Arabidopsis wild-type HPPD; format: biochemical; parameters: key to Normalized tolerance index TI: tolerance index relative to Arabidopsis wild-type HPPD (= 1); conditions: for Normalized tolerance index TI: normalized on Arabidopsis wild-type HPPD
T1 construct: His6 (N); made in house; host or cells: E. coli BL21 (DE3)
T1 sequence (P93836 1-445): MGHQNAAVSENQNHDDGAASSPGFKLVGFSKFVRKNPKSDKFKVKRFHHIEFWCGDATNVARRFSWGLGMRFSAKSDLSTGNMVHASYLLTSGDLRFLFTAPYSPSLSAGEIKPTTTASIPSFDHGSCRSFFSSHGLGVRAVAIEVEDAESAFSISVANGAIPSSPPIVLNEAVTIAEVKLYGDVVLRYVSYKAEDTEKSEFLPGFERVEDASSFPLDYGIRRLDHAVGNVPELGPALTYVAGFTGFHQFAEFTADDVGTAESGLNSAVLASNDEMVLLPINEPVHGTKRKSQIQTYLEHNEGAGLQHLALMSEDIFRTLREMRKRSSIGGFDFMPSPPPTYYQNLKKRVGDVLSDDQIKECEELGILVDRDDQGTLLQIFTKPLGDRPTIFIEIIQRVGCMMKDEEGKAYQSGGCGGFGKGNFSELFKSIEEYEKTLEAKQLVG
Protocol: as §1, §2
as §3, with “Thus, final inhibitor concentrations range from 200 μM to 2.5 nM or from 5 μM to 63 pM, respectively.” left out
as §4, §5
as §6, with “Thus, final inhibitor concentrations range from 5 μM to 320 pM, respectively.” left out
(§11) Using methods which are described in the above examples or well known in the art, purified, recombinant wildtype HPPD enzymes are characterized with respect to their kinetic properties and sensitivity towards HPPD inhibiting herbicides. Apparent michaelis constants (Km) and maximal reaction velocities (Vmax) are calculated by non-linear regression with the software GraphPad Prism 5 (GraphPad Software, La Jolla, USA) using a substrate inhibition model.
as §8
Easy comparison and ranking of each trait is enabled by normalizing tolerance indexes on Arabidopsis wild-type HPPD.

Sorghum HPPD = assay: HPPD activity assay, Sorghum HPPD; format: biochemical; conditions: normalized on Arabidopsis wild-type HPPD
Protocol: as §1, §2, §3, §4, §9, §10, §7

[2] = molecular target: T2, Arabidopsis HPPD variant M335H, P336A (Arabidopsis thaliana, UniProt P93836, M335H/P336A); assay: HPPD activity assay, Arabidopsis HPPD mutant M335H, P336A; format: biochemical; conditions: normalized on Arabidopsis wild-type HPPD
T2 construct: PCR-based site directed mutagenesis of pEXP5-NT/TOPO®-AtHPPD is done; His6 (N); made in house; host or cells: E. coli BL21 (DE3)
Protocol: as §1, §2
as §3, with “Thus, final inhibitor concentrations range from 200 μM to 2.5 nM or from 5 μM to 63 pM, respectively.” left out
as §4, §5
Inhibitors are dissolved in DMSO (dimethylsulfoxide) to a concentration of 0.5 mM. […] IC50 values are calculated using non-linear regression. […]
Purified, mutant HPPD enzymes are obtained by the methods described above. […] Apparent michaelis constants (Km) and maximal reaction velocities (Vmax) are calculated by non-linear regression with the software GraphPad Prism 5 (GraphPad Software, La Jolla, USA) using a substrate inhibition model.
as §8, with “of the optimized HPPD enzyme,” for “of the HPPD enzyme,”, “herbicide tolerance trait may depend” for “herbicide tolerance trait, may depend”

Poa HPPD = assay: HPPD activity assay, Poa HPPD; format: biochemical; conditions: normalized on Arabidopsis wild-type HPPD
Protocol: as §1, §2, §3, §4, §9, §10, §7

Hordeum HPPD (SEQ ID: 2) = molecular target: T3, Hordeum HPPD (SEQ ID: 2) (Hordeum vulgare, UniProt O48604, A164G/R146V/R147D/R148G); assay: HPPD activity assay, Hordeum wild-type HPPD; format: biochemical; conditions: Hordeum HPPD; substrate; read-out: michaelis constant Km (4-HPP)
T3 construct: His (N); made in house; host or cells: E. coli BL21 (DE3)
Protocol: as §1, §2
as §3, with “Thus, final inhibitor concentrations range from 200 μM to 2.5 nM or from 5 μM to 63 pM, respectively.” left out
as §4, §5
as §6, with “Thus, final inhibitor concentrations range from 5 μM to 320 pM, respectively.” left out
as §11, §8

T3 sequence (O48604 whole entry R146V/R147D/R148G/A164G): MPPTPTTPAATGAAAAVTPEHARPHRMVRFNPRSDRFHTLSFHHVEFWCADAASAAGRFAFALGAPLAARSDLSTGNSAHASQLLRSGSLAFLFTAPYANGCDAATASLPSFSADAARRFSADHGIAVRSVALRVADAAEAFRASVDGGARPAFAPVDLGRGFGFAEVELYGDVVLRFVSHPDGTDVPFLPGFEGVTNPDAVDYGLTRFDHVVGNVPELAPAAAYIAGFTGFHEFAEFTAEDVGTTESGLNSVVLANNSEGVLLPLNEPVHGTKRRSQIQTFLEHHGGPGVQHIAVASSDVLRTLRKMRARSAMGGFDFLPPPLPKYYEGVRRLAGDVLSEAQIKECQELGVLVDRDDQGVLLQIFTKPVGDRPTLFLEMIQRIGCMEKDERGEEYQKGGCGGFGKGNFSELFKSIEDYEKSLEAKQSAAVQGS
T2 sequence (P93836 whole entry M335H/P336A): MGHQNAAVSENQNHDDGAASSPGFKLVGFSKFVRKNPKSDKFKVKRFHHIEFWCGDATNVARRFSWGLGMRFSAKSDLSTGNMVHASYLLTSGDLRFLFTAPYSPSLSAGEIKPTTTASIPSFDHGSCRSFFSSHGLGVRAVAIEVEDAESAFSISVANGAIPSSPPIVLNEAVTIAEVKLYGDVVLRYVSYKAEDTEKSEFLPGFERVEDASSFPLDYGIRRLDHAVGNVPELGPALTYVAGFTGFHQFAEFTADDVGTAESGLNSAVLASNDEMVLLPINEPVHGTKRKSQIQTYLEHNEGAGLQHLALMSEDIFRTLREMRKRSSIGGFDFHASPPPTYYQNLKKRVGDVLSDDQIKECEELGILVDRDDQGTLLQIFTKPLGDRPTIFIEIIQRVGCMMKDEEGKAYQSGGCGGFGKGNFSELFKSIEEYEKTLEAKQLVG

SMILES | Normalized tolerance index TI (Lolium HPPD) | Normalized tolerance index TI (Alopecurus HPPD) | Normalized tolerance index TI (Avena HPPD) | Normalized tolerance index TI (Chlamydomonas HPPD1) | Normalized tolerance index TI ([1]; Arabidopsis HPPD Wildtype, Table 15) | Normalized tolerance index TI ([1]; Arabidopsis HPPD, Table 12) | Normalized tolerance index TI (Sorghum HPPD) | Normalized tolerance index TI [2] | Normalized tolerance index TI (Poa HPPD) | Km (Hordeum HPPD (SEQ ID: 2)) [µM] | Km ([1]; Arabidopsis HPPD, substrate, read-out: michaelis constant Km (4-HPP)) [µM]
CC1CC(c2c(Cl)ccc(C3=C(O)c4ncccc4CS3(=O)=O)c2Cl)=NO1 (centres unmarked) [Inhibitor 4, 7-[2,4-dichloro-3-(5-methyl-4,5-dihydroisoxazol-3-yl)phenyl]-6,6-dioxo-5H-thiopyrano[4,3-b]pyridin-8-ol] | 4.5 | 3.5 | 5.3 | 1.3 | 1 | 1 | 3.7 | 7.4 | 1.2 |  | 
O=C(O)C(=O)Cc1ccc(O)cc1 [Inhibitor 4-HPP, 4-hydroxyphenylpyruvate, reference compound] |  |  |  |  |  |  |  |  |  | 26 | 13
